Converted amounts (≈) assume the structure as drawn. Like-named read-outs stand apart in the source and are kept apart here.
Key:
Cytotoxicity assay (MTT) = assay type: cell-based; conditions: African green monkey
Experimental: (§1) Then, different concentrations of compounds in DMEM were added to cells and incubated for another 48 h. […] MTT solution (10 μL per well) was added and incubated for another 4 h at 37°C, discarding the native compounds and using dimethyl sulfoxide (DMSO) to dissolve products for 10 min at 37°C. Microplate reader (BioTek, Winooski, VT, United States) was used to measure the 96-well plate at 570 nm, and the cell viability (%) was calculated by OD values ([23]). […] The percentage of relative cell viability was calculated according to the formula: […]%=[…]

PEDV DY [1] = assay: Antiviral activity assay (MTT, virus inhibition rate), PEDV DY; conditions: Porcine epidemic diarrhea virus, Vero C1008, read-out: IC50 PEDV DY
PEDV [2] = assay: Antiviral activity assay, PEDV strain not stated; conditions: Porcine epidemic diarrhea virus, read-out: IC50 values against PEDV
PEDV CV777 [3] = assay: Antiviral activity assay (MTT, virus inhibition rate), PEDV CV777; conditions: Porcine epidemic diarrhea virus, Vero C1008, read-out: IC50 PEDV CV777
PEDV [4] = assay: Viral quantification by qPCR at different time points; assay type: cell-based, porcine epidemic diarrhea virus; conditions: 24 hpi and 48 hpi, p < 0.001
PEDV DY [5] = assay: Virus titration (TCID50, Reed-Muench), PEDV DY; assay type: cell-based, porcine epidemic diarrhea virus; conditions: for virus titer vs virus control group: PEDV DY, 24, 36 and 48 hpi, p < 0.01
PEDV CV777 [6] = assay: Virus titration (TCID50, Reed-Muench), PEDV CV777; assay type: cell-based, porcine epidemic diarrhea virus; conditions: for virus titer vs virus control group: PEDV CV777, 24, 36 and 48 hpi, p < 0.01
PEDV [7] = assay: Time-of-addition assay, prophylactic stage (qPCR, western blot); assay type: cell-based, porcine epidemic diarrhea virus; conditions: for viral mRNA quantitation: qPCR; for expression level of PEDV N protein: western blot, concentration dependent
PEDV [8] = assay: Time-of-addition assay, post-viral entry stage (qPCR, western blot); assay type: cell-based, porcine epidemic diarrhea virus; conditions: for viral nucleic acid copy numbers vs control group: qPCR, p < 0.05; for expression level of PEDV N protein: western blot, concentration dependent
PEDV [9] = assay: Time-of-addition assay, viral entry stage (qPCR); assay type: cell-based, porcine epidemic diarrhea virus
DENV-2 [10] = system: DENV-2; set-up: method as in doi:10.1186/1743-422X-8-560; conditions: 50 μg/mL after virus incubation; cited from earlier work
PEDV [11] = assay: Indirect immunofluorescence assay of viral load; conditions: Vero E6 cells, 48 h after infection, concentration dependent
[12] = system: human Huh 7 it-1 cell line; set-up: method as in doi:10.1088/1755-1315/462/1/012033; conditions: cited from earlier work
DENV-2 [13] = system: DENV-2; set-up: method as in doi:10.1088/1755-1315/462/1/012033; conditions: cited from earlier work
enterovirus 71 = system: enterovirus 71; set-up: method as in PMID 24598537; conditions: replication of enterovirus 71, by inhibiting 3CLpro protein activity; cited from earlier work
mice = conditions: animal tests; cited from earlier work
Vero E6 cells = assay: Cytotoxicity assay (MTT); assay type: cell-based
Experimental: as §1

[14] = Vero E6 cells, MTT, 48 h incubation, read-out: CC50

COC(=O)C1=CO[C@@H](O[C@@H]2O[C@H](CO)[C@@H](O)[C@H](O)[C@H]2O)[C@@H]2C(CO)=CC[C@H]12 [Geniposide, geniposide]
CC50 at 48 h (Cytotoxicity assay (MTT); [14]): 10.4 ± 2.03 µg/mL (≈ 26.7 µM) | IC50 (PEDV DY [1]): > 100 µg/mL | IC50 (PEDV [2]): > 100 µg/mL | IC50 (PEDV CV777 [3]): > 100 µg/mL

O=C1C[C@@H](c2ccc(O)cc2)Oc2cc(O)cc(O)c21 [Naringenin, naringenin]
CC50 at 48 h (Cytotoxicity assay (MTT); [14]): 61.9 ± 0.97 µg/mL (≈ 227 µM) | virus copy numbers vs control group (PEDV [4]; 12.5 μg/mL): significantly lower than in the control group | virus titer vs virus control group (PEDV DY [5]): significantly lower | virus titer vs virus control group (PEDV CV777 [6]): significantly lower | viral mRNA quantitation (PEDV [7]; 3.13 μg/mL): 4.79 × 10^6 copies/μL | viral mRNA quantitation (PEDV [7]; 6.25 μg/mL): 3.21 × 10^6 copies/μL | viral mRNA quantitation (PEDV [7]; 12.5 μg/mL): 2.17 × 10^6 copies/μL | expression level of PEDV N protein (PEDV [7]): significantly inhibit | viral nucleic acid copy numbers vs control group (PEDV [8]): significantly lower than those in the control group | expression level of PEDV N protein (PEDV [8]): significantly inhibit | inhibitory effect, nucleic acid copy numbers vs control group (PEDV [9]): did not show significant inhibitory effects | reduction of DENV-2 RNA levels (DENV-2 [10]): 50% | green fluorescence of viral proteins (IFA) (PEDV [11]): diminished to varying extents | IC50 (PEDV DY [1]): 4.5 ± 2.25 µg/mL (≈ 16.5 µM) | IC50 (PEDV CV777 [3]): 4.39 ± 0.96 µg/mL (≈ 16.1 µM)

O=c1c(O)c(-c2ccc(O)c(O)c2)oc2cc(O)cc(O)c12 [quercetin]
CC50 [12]: 217.113 µg/mL (≈ 718 µM) | IC50 against DENV-2 (DENV-2 [13]): 18.41 µg/mL (≈ 60.9 µM) | IC50 (PEDV [2]): > 100 µg/mL

O=c1cc(-c2ccccc2)oc2cc(O)cc(O)c12 [Chrysin, chrysin]
CC50 at 48 h (Cytotoxicity assay (MTT)): 83.6 ± 2.12 µg/mL (≈ 329 µM) | virus copy numbers vs control group (PEDV [4]; 50 μg/mL): significantly lower than in the control group | virus titer vs virus control group (PEDV DY [5]): significantly lower | virus titer vs virus control group (PEDV CV777 [6]): significantly lower | viral mRNA quantitation (PEDV [7]; 12.5 μg/mL): 3.87 × 10^6 copies/μL | viral mRNA quantitation (PEDV [7]; 25 μg/mL): 1.78 × 10^6 copies/μL | viral mRNA quantitation (PEDV [7]; 50 μg/mL): 1.19 × 10^6 copies/μL | expression level of PEDV N protein (PEDV [7]): significantly inhibit | viral nucleic acid copy numbers vs control group (PEDV [8]): significantly lower than those in the control group | expression level of PEDV N protein (PEDV [8]): significantly inhibit | inhibitory effect, nucleic acid copy numbers vs control group (PEDV [9]): did not show significant inhibitory effects | IC50 (enterovirus 71): 24.1 µM | toxic effects (mice): no toxic effects on mice | green fluorescence of viral proteins (IFA) (PEDV [11]): diminished to varying extents | IC50 (PEDV DY [1]): 2.48 ± 0.59 µg/mL (≈ 9.77 µM) | IC50 (PEDV CV777 [3]): 2.19 ± 2.25 µg/mL (≈ 8.62 µM)

CC1(C)[C@@H](O)CC[C@]2(C)[C@H]3C(=O)C=C4[C@@H]5C[C@@](C)(C(=O)O)CC[C@]5(C)CC[C@@]4(C)[C@]3(C)CC[C@@H]12 [Glycyrrhetinic acid, glycyrrhetinic acid]
CC50 at 48 h (Cytotoxicity assay (MTT)): 17.4 ± 4.61 µg/mL (≈ 37 µM) | IC50 (PEDV DY [1]): > 100 µg/mL | IC50 (PEDV [2]): > 100 µg/mL | IC50 (PEDV CV777 [3]): > 100 µg/mL

NC(=O)c1ncn([C@@H]2O[C@H](CO)[C@@H](O)[C@H]2O)n1 [Ribavirin, ribavirin, reference compound]
CC50 at 48 h (Cytotoxicity assay (MTT)): 249 ± 4.2 µg/mL (≈ 1020 µM) | virus titer vs virus control (PEDV DY [5]; PEDV DY, 36 h, p < 0.05): significantly lower | virus titer vs virus control (PEDV CV777 [6]; PEDV CV777, 36 h, p < 0.05): significantly lower | IC50 (PEDV DY [1]): 71.4 ± 3.78 µg/mL (≈ 292 µM) | IC50 (PEDV CV777 [3]): 88 ± 3.78 µg/mL (≈ 360 µM)

CC1(C)CC[C@]2(C(=O)O)CC[C@]3(C)C(=CC[C@@H]4[C@@]5(C)CC[C@H](O)C(C)(C)[C@@H]5CC[C@]43C)[C@@H]2C1 [Oleanolic acid, oleanolic acid]
CC50 at 48 h (Cytotoxicity assay (MTT); [14]): 4.05 ± 3.91 µg/mL (≈ 8.88 µM) | IC50 (PEDV DY [1]): > 100 µg/mL | IC50 (PEDV [2]): > 100 µg/mL | IC50 (PEDV CV777 [3]): > 100 µg/mL

soy isoflavone
CC50 (Vero E6 cells): 53.03 ± 2.30 µg/mL
